Assay results: PubChem BioAssay AID248 (DTP/NCI, 2004)
Several values for one entry are separate records, joined by “and”; a condition that tells them apart may be missing. Equal entries are not always repeated. Inconclusive results and toxic doses are left out. Cut-off read from the data, not from the text of the source: active = T/C of 150% or more; inactive = T/C below 125%.

Tested on: L1210 leukemia ip in BDF1 mice, survival T/C
Assay: NCI In Vivo Anticancer Drug Screen. Data for tumor model L1210 Leukemia (intraperitoneal) in B6D2F1 (BDF1) mice
Conditions: endpoint: mean survival time, higher = longer survival
Method in brief: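 Each compound was tested against a transplantable tumor grown in mice. The endpoint was survival, with treated animals benchmarked against vehicle controls as a simple ratio.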

[1] = dose: 6.25 mg/kg/injection, schedule: Q01DX009 (ip), vehicle: saline
[2] = dose: 12.5 mg/kg/injection, schedule: Q01DX009 (ip), vehicle: saline
[3] = dose: 25.0 mg/kg/injection, schedule: Q01DX009 (ip), vehicle: saline
[4] = dose: 50.0 mg/kg/injection, schedule: Q01DX009 (ip), vehicle: saline
[5] = dose: 100.0 mg/kg/injection, schedule: Q04DX003 (ip), vehicle: Klucel (hydroxypropylcellulose) (HPC)
[6] = dose: 200.0 mg/kg/injection, schedule: Q04DX003 (ip), vehicle: Klucel (hydroxypropylcellulose) (HPC)
[7] = dose: 100.0 mg/kg/injection, schedule: Q01DX009 (ip), vehicle: saline
[8] = dose: 200.0 mg/kg/injection, schedule: Q01DX009 (ip), vehicle: saline
[9] = dose: 100.0 mg/kg/injection, schedule: Q04DX003 (ip), vehicle: saline
[10] = dose: 200.0 mg/kg/injection, schedule: Q04DX003 (ip), vehicle: saline
[11] = dose: 400.0 mg/kg/injection, schedule: Q04DX003 (ip), vehicle: saline

Measured: T/C

CCOC(OCC)c1nc(N)c2cnn(C)c2n1
inactive: [1] 89 % of control | [2] 97 % of control | [3] 106 % of control and 110 % of control | [4] 94 % of control | dose: 100.0 mg/kg/injection, schedule: Q04DX002 (ip), vehicle: saline 112 % of control

O=C(COc1ccc(Cl)cc1Cl)Nc1c(Cl)cc(Cl)cc1Cl
inactive: dose: 100.0 mg/kg/injection, schedule: Q04DX002 (ip), vehicle: Klucel (hydroxypropylcellulose) (HPC) 99 % of control | dose: 200.0 mg/kg/injection, schedule: Q04DX002 (ip), vehicle: Klucel (hydroxypropylcellulose) (HPC) 108 % of control | dose: 400.0 mg/kg/injection, schedule: Q04DX002 (ip), vehicle: Klucel (hydroxypropylcellulose) (HPC) 86 % of control

COc1cccc2c1C(=O)OC2=O
inactive: dose: 75.0 mg/kg/injection, schedule: Q01DX009 (ip), vehicle: Klucel (hydroxypropylcellulose) (HPC) 88 % of control | dose: 150.0 mg/kg/injection, schedule: Q01DX009 (ip), vehicle: Klucel (hydroxypropylcellulose) (HPC) 90 % of control | dose: 300.0 mg/kg/injection, schedule: Q01DX009 (ip), vehicle: Klucel (hydroxypropylcellulose) (HPC) 88 % of control

NC(=O)N/N=C/c1cc(=O)[nH]c(=O)[nH]1
inactive: dose: 100.0 mg/kg/injection, schedule: Q01DX001 (ip), vehicle: saline 88 % of control | dose: 200.0 mg/kg/injection, schedule: Q01DX001 (ip), vehicle: saline 97 % of control | dose: 400.0 mg/kg/injection, schedule: Q01DX001 (ip), vehicle: saline 97 % of control

CC(C)(C)OC(=O)/N=N/C(=O)OC(C)(C)C
inactive: dose: 100.0 mg/kg/injection, schedule: Q01DX001 (ip), vehicle: carboxymethylcellulose (CMC) 102 % of control | dose: 200.0 mg/kg/injection, schedule: Q01DX001 (ip), vehicle: carboxymethylcellulose (CMC) 94 % of control | dose: 400.0 mg/kg/injection, schedule: Q01DX001 (ip), vehicle: carboxymethylcellulose (CMC) 94 % of control

O=C1OC(c2ccco2)=N/C1=C\c1ccc(Cl)c(Cl)c1
inactive: dose: 100.0 mg/kg/injection, schedule: Q04DX002 (ip), vehicle: saline with Tween-80 108 % of control | dose: 200.0 mg/kg/injection, schedule: Q04DX002 (ip), vehicle: saline with Tween-80 105 % of control | dose: 400.0 mg/kg/injection, schedule: Q04DX002 (ip), vehicle: saline with Tween-80 108 % of control

O=C1c2ccccc2CC1(Br)Br
inactive: dose: 100.0 mg/kg/injection, schedule: Q04DX003 (ip), vehicle: other 96 % of control | dose: 200.0 mg/kg/injection, schedule: Q04DX003 (ip), vehicle: other 93 % of control

BrC(c1ccccc1)C(Br)c1ccccc1 (stereo unspecified)
inactive: dose: 100.0 mg/kg/injection, schedule: Q01DX009 (ip), vehicle: Klucel (hydroxypropylcellulose) (HPC) 86 % of control | [5] 92 % of control | dose: 200.0 mg/kg/injection, schedule: Q01DX009 (ip), vehicle: Klucel (hydroxypropylcellulose) (HPC) 96 % of control | [6] 94 % of control | dose: 400.0 mg/kg/injection, schedule: Q01DX009 (ip), vehicle: Klucel (hydroxypropylcellulose) (HPC) 91 % of control | dose: 400.0 mg/kg/injection, schedule: Q04DX003 (ip), vehicle: Klucel (hydroxypropylcellulose) (HPC) 100 % of control

Cc1ccc(NC(=O)Nc2ccc(C3=NCCN3)cc2)cc1NC(=O)Nc1ccc(C2=NCCN2)cc1
inactive: dose: 2.25 mg/kg/injection, schedule: Q01DX Z (ip), vehicle: water 105 % of control | dose: 4.5 mg/kg/injection, schedule: Q01DX Z (ip), vehicle: water 102 % of control | dose: 9.0 mg/kg/injection, schedule: Q01DX Z (ip), vehicle: water 92 % of control | dose: 18.0 mg/kg/injection, schedule: Q01DX Z (ip), vehicle: water 100 % of control

Cn1c[n+](C)ccc1=O
inactive: dose: 100.0 mg/kg/injection, schedule: Q01DX009 (ip), vehicle: water 87 % of control | dose: 100.0 mg/kg/injection, schedule: Q04DX003 (ip), vehicle: water 111 % of control | dose: 200.0 mg/kg/injection, schedule: Q01DX009 (ip), vehicle: water 104 % of control | dose: 200.0 mg/kg/injection, schedule: Q04DX003 (ip), vehicle: water 106 % of control | dose: 400.0 mg/kg/injection, schedule: Q04DX003 (ip), vehicle: water 111 % of control

CCOC(=O)c1[nH]c(C)c(CCC(=O)O)c1C
inactive: dose: 12.0 mg/kg/injection, schedule: Q04DX003 (ip), vehicle: Klucel (hydroxypropylcellulose) (HPC) 95 % of control | dose: 25.0 mg/kg/injection, schedule: Q04DX003 (ip), vehicle: Klucel (hydroxypropylcellulose) (HPC) 98 % of control | dose: 50.0 mg/kg/injection, schedule: Q04DX003 (ip), vehicle: Klucel (hydroxypropylcellulose) (HPC) 104 % of control | dose: 100.0 mg/kg/injection, schedule: Q01DX001 (ip), vehicle: Klucel (hydroxypropylcellulose) (HPC) 97 % of control | [5] 103 % of control | dose: 200.0 mg/kg/injection, schedule: Q01DX001 (ip), vehicle: Klucel (hydroxypropylcellulose) (HPC) 97 % of control | [6] 98 % of control | dose: 400.0 mg/kg/injection, schedule: Q01DX001 (ip), vehicle: Klucel (hydroxypropylcellulose) (HPC) 101 % of control

CNP1(N(C)C)=NP(NC)(N(C)C)=NP(NC)(N(C)C)=N1 (stereo unspecified)
inactive: [4] 102 % of control | [7] 100 % of control | [8] 94 % of control

Nc1nc2c(ncn2-c2cccc3ccccc23)c(=O)[nH]1
inactive: dose: 25.0 mg/kg/injection, schedule: Q01DX001 (ip), vehicle: saline with Tween-80 93 % of control | dose: 50.0 mg/kg/injection, schedule: Q01DX001 (ip), vehicle: saline with Tween-80 119 % of control | dose: 100.0 mg/kg/injection, schedule: Q01DX001 (ip), vehicle: saline with Tween-80 93 % of control

CCN(CC)C(=O)Nc1cccc(OC(=O)N(C)C)c1
inactive: dose: 100.0 mg/kg/injection, schedule: Q01DX009 (ip), vehicle: saline with Tween-80 87 % of control | dose: 200.0 mg/kg/injection, schedule: Q01DX009 (ip), vehicle: saline with Tween-80 89 % of control

CC(C)(C)O.[Zr]
inactive: dose: 25.0 mg/kg/injection, schedule: Q01DX009 (ip), vehicle: other 108 % of control | dose: 50.0 mg/kg/injection, schedule: Q01DX009 (ip), vehicle: other 97 % of control | dose: 100.0 mg/kg/injection, schedule: Q01DX009 (ip), vehicle: other 90 % of control | [9] 96 % of control | dose: 200.0 mg/kg/injection, schedule: Q01DX009 (ip), vehicle: other 103 % of control | [10] 98 % of control | [11] 94 % of control

NC(CO)CSCc1ccccc1 (stereo unspecified)
inactive: [1] 105 % of control | [2] 100 % of control | [3] 110 % of control and 113 % of control | [4] 100 % of control and 102 % of control | [7] 104 % of control

Nc1[nH]c(=S)[nH]c(=O)c1NC(=O)C1CC1
inactive: [9] 96 % of control | [10] 105 % of control | [11] 102 % of control

O=C1OCCO1
inactive: dose: 100.0 mg/kg/injection, schedule: Q04DX003 (ip), vehicle: saline sonified 95 % of control | dose: 200.0 mg/kg/injection, schedule: Q04DX003 (ip), vehicle: saline sonified 101 % of control | dose: 400.0 mg/kg/injection, schedule: Q04DX003 (ip), vehicle: saline sonified 101 % of control

NCCc1cc(O)c(O)cc1O
inactive: [3] 102 % of control and 107 % of control | [4] 93 % of control and 103 % of control | [7] 93 % of control and 91 % of control | [8] 88 % of control | dose: 400.0 mg/kg/injection, schedule: Q01DX009 (ip), vehicle: saline 86 % of control
